{
  "source": "patent US8354522B2",
  "about": "“Immunostimulatory oligoribonucleotides” (Coley Pharmaceutical GmbH, priority 2005, dated 2013)",
  "key": {"isolated pDC": {"system": "isolated pDC", "experiment": "IFN-alpha production upon isolated pDC stimulation", "type": "cell-based, human", "conditions": "0.5 μM ORN complexed to 10 μg/ml DOTAP, 16 h", "protocol": "(§1) FIG. 2 is a set of bar graphs depicting ORN induced cytokine production upon isolated pDC (FIG. 2a), monocytes (FIG. 2b) and mDC (FIG. 2c) stimulation. Cells were stimulated with 0.5 μM ORN complexed to 10 μg/ml DOTAP, 0.5 μM CpG ODN or DOTAP or media alone and IFN-alpha (FIG. 2a), TNF-alpha […] and IL-12p40 (FIG. 2c) were measured.\n(§2) A similar assay testing different ORN sequences was performed using isolated pDC, monocytes and mDC stimulation. Cells were stimulated with 0.5 μM ORN complexed to 10 μg/ml DOTAP, 0.5 μM CpG ODN or DOTAP or media alone. After 16 h the supernatants were harvested and IFN-alpha, TNF-alpha and IL-12p40 levels were measured by ELISA."}, "Human PBMC": {"system": "Human PBMC", "experiment": "Cytokine production upon human PBMC stimulation (ORN complexed to DOTAP, 16 h, ELISA)", "type": "cell-based", "set-up": "key to IFN-alpha / TNF-alpha: +: cytokine production; −: no cytokine production", "conditions": "for IFN-alpha / TNF-alpha: human PBMC stimulated for 16 h, supernatant ELISA", "method_in_brief": "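Healthy-donor PBMCs were stimulated for 16 h with ORN complexed to DOTAP (25 μg/ml), titrated in 7 steps of 1/3 from 2 μM (to 0.9 nM). IFN-alpha and TNF-alpha in supernatants were measured by ELISA. Mean/max activity at 0.6 μM and EC50 came from 3-6 donors over two experiments.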"}, "CD14-positive cell": {"system": "CD14-positive cell", "experiment": "CD80 surface marker expression upon CD14-positive cell stimulation (FACS)", "type": "cell-based", "conditions": "human PBMC (data not shown) and CD14-positive cells, ORN complexed to DOTAP, 16 h", "protocol": "(§3) FIG. 10 is a series of graphs showing surface marker expression upon human pDC stimulation with AU-rich or GU-rich ORN. CD123+ purified pDC (FIGS. 10a and 10b) or isolated monocytes (FIG. 10c) were incubated with 1 μM ORN complexed to 25 μg/ml DOTAP or DOTAP alone (FIG. 10a) or indicated amounts of ORN complexed to DOTAP or DOTAP alone (FIGS. 10b-10c). After 16 h cells were harvested and stained with CD123, CD11c and HLA-DR antibodies (FIGS. 10a and 10b) or CD14 and CD19 (FIG. 10c). Cell surface marker activation was measured by CD86 (FIGS. 10a and 10b) or CD80 (FIG. 10c) expression. […] FIG. 10b is a graph illustrating that CD86 surface marker expression upon human pDC stimulation is dose-dependent.\n(§4) CD123+ purified pDC (FIGS. 10a and 10b) or isolated monocytes (FIG. 10c) were incubated with 1 μM ORN complexed to 25 μg/ml DOTAP or DOTAP alone (FIG. 10a) or indicated amounts of ORN complexed to DOTAP or DOTAP alone (FIGS. 10b-10c). After 16 h cells were harvested and stained with CD123, CD11c and HLA-DR antibodies (FIGS. 10a and 10b) or CD14 and CD19 (FIG. 10c). […] This activation was determined to be dose-dependent (FIG. 10b)."}, "sv129 mice": {"system": "sv129 mice", "experiment": "Cytokine production in sv129 mice in vivo (whole blood ELISA, 3 hours)", "set-up": "species or system mouse", "conditions": "ORN formulated with DOTAP, bled after 3 hours", "protocol": "(§5) Cells used were mouse macrophage cell line Raw264.7 cells (FIG. 12a), J774 cells (FIG. 12b), purified mouse CD11c+ cells (sv129 mice) (FIGS. 12c-12h) and mouse cells in vivo. Cytokine concentration was evaluated by ELISA.\n(§6) Raw264.7 cells (FIG. 12a), J774 cells (FIG. 12b) and purified CD11c+ cells (Milteny, magnetic bead labeling) were isolated from sv129 mice splenocytes (FIGS. 12c-12e) and were stimulated with indicated concentrations of ORN complexed to DOTAP (50 μg/ml and diluted with ORN), R-848 or DOTAP alone (50 μg/ml). After 16 hours (FIGS. 12a and 12b) or 20 hours (FIGS. 12c-12e) supernatants were harvested and used for TNF-alpha (FIGS. 12a and 12b), IL-12p40 (FIG. 12c), IFN-alpha (FIG. 12d) and IP-10 (FIG. 12e) ELISA. Data represent one individual from at least three experiments (FIGS. 12a and 12b) and mean of 3 mice (FIGS. 12c-12e). To measure the ability of AU-rich ORN to stimulate mouse cells in vivo, sv129 mice (n=5/group) were injected with the indicated amounts of ORN formulated with DOTAP (60, 20 or 6 μg/ml), and bled after 3 hours. IL-12p40 (FIG. 12f), IFN-alpha (FIG. 12g) and IP-10 (FIG. 12h) production was measured within whole blood by ELISA."}, "[1]": {"system": "Raw264.7 cells, J774 cells, purified mouse CD11c+ cells", "experiment": "Cytokine production by mouse cells in vitro (ELISA)", "type": "cell-based", "conditions": "ORN complexed to DOTAP, 16 or 20 hours", "protocol": "as §5, §6"}, "CD123+ purified pDC": {"system": "CD123+ purified pDC", "experiment": "CD86 surface marker expression upon human pDC stimulation (FACS)", "type": "cell-based", "conditions": "1 μM ORN complexed to 25 μg/ml DOTAP, 16 h", "protocol": "as §3, §4"}, "[2]": {"system": "isolated monocytes and mDC", "experiment": "TNF-alpha and IL-12p40 production upon isolated monocytes and mDC stimulation", "type": "cell-based, human", "conditions": "0.5 μM ORN complexed to 10 μg/ml DOTAP, 16 h", "protocol": "as §1, §2"}},
  "note": "“Also recorded” adds a separate entry of the source.",
  "data": [
    {"substance": "U*U*A*U*U*A*U*U*A*U*U*A*U*U*A*U*U*A*U*U (UUAUUAUUAUUAUUAUUAUU; chemistry not fully specified) [SEQ ID NO: 13]", "values": [
      {"measurement": "IFN-alpha production upon pDC stimulation (in words)", "setting": "isolated pDC", "result": "strongly reduced IFN-alpha production; also recorded: no IFN-alpha cytokine production"},
      {"measurement": "IFN-alpha production upon PBMC stimulation (in words)", "setting": "Human PBMC; human PBMC", "result": "no IFN-alpha cytokine production"},
      {"measurement": "IFN-alpha", "setting": "Human PBMC", "result": "−"},
      {"measurement": "TNF-alpha", "setting": "Human PBMC", "result": "+"},
      {"measurement": "CD80 surface marker expression", "setting": "CD14-positive cell", "result": "no difference in CD80 surface marker expression"},
      {"measurement": "response of mouse cells in vivo (IL-12p40, IFN-alpha, IP-10 in whole blood)", "setting": "sv129 mice", "result": "do not Respond"},
      {"measurement": "response of mouse macrophages/cells in vitro (TNF-alpha, IL-12p40, IFN-alpha, IP-10)", "setting": "[1]", "result": "do not Respond"},
      {"measurement": "CD86 surface marker expression", "setting": "CD123+ purified pDC", "result": "very little CD86 activation"},
      {"measurement": "IL-12p40 production (in words)", "setting": "[2]", "result": "clear TNF-alpha and IL-12p40 production"},
      {"measurement": "TNF-alpha production (in words)", "setting": "[2]", "result": "clear TNF-alpha and IL-12p40 production"}
    ]},
    {"substance": "U*U*G*U*U*G*U*U*G*U*U*G*U*U*G*U*U*G*U*U (UUGUUGUUGUUGUUGUUGUU; listed as RNA, chemistry not fully specified) [SEQ ID NO: 21]", "values": [
      {"measurement": "IFN-alpha", "setting": "Human PBMC", "result": "+"},
      {"measurement": "TNF-alpha", "setting": "Human PBMC", "result": "+"},
      {"measurement": "CD80 surface marker expression", "setting": "CD14-positive cell", "result": "no difference in CD80 surface marker expression"},
      {"measurement": "CD86 surface marker expression", "setting": "CD123+ purified pDC", "result": "significant CD86 activation"},
      {"measurement": "IL-12p40 production (in words)", "setting": "[2]", "result": "clear TNF-alpha and IL-12p40 production"},
      {"measurement": "TNF-alpha production (in words)", "setting": "[2]", "result": "clear TNF-alpha and IL-12p40 production"}
    ]}
  ]
}
